The results in this text go back to patent US20260097111A1, “ETHER LIPIDS FOR HYPERACTIVATION OF MAMMALIAN DENDRITIC CELLS” (priority 2022, published 2026).

“Also recorded” adds a separate entry of the source.

The subject of data set [1] is human monocyte-derived dendritic cells (moDCs). Nature of the data set: IL-1β secretion by human moDCs treated with lipid and R848. In kind it is cell-based. The settings on record: for hyperactivation of human dendritic cells: 41.25 μM lipid with R848 (Compound 1 also 20.6 μM); for IL-1β secretion / IL-1β secretion, dependence on the NLRP3 inflammasome: human moDCs; for IL-1β secretion, dependence on the NLRP3 inflammasome: R848 + lipid with or without MCC950, one day, FIG. 3B. The protocol: (§1) Human monocytes were isolated from Leukopaks purchased from Miltenyi using the StraightFrom Leukopak CD14 microbead kit (Miltenyi). Isolations were completed following manufacturer's instructions. Monocytes were then aliquoted and frozen in fetal bovine serum containing 10% dimethyl sulfoxide. For studies with monocyte-derived dendritic cell (moDC) cultures, monocytes were thawed and cultured in RPMI medium containing 10% FBS, 50 units/mL penicillin, […] streptomycin, 2 mM L-glutamine, 1 mM sodium pyruvate, […] beta-mercaptoethanol, 10 mM HEPES, and Gibco MEM non-essential amino acids (R10 media). To differentiate monocytes into moDCs, recombinant human GM-CSF (50 ng/mL) and IL-4 (25 ng/mL) were added to R10 media. Cells were cultured for 6 days with GM-CSF and IL-4, with an additional cell feeding with R10 containing GM-CSF and IL-4 on day 3.
Six days after differentiation, moDC were collected and counted. Cells were plated into 96-well flat-bottom plates at 1×10^5 cells/well. Cells were treated with or without 1 μg/mL R848 (final) and with or without a hyperactivating lipid (or vehicle control). In some experiments, MCC950, an inhibitor of the NLRP3 inflammasome, was added at a final concentration of 10 uM. In some experiments, nigericin, which causes NLRP3 inflammasome activation and subsequent pyroptosis, was used as a positive control at 20 uM. Cells and stimuli totaled a final volume of […].
Lipid stocks were then further diluted in PBS to treat cells.
After an overnight incubation, cells and culture supernatant were used for downstream readouts. One hundred and fifty microliters of cell supernatant were collected. Viability was measured using the CellTiter-Glo assay (Promega) which measures ATP content from cells. Fifty microliters of CellTiter-Glo reagent were added to 50 μL of cells. Luminescence was quantified on a SpectraMax m5e plate reader using an integration time of 500 milliseconds. Viability data were set relative to control conditions where cells were treated with only R848. To measure IL-1β secretion, the human IL-1β Lumit kit (Promega) was used to assay cell culture supernatant. Culture supernatant samples were incubated with enzyme-linked antibodies in a 384-well plate for 1 hour before addition of luminescent substrate. Samples were measured for luminescence with an integration time of 500 milliseconds. IL-1β concentrations of samples was determined by interpolation from a standard curve using 4-parameter logistic regression analysis. Studies were performed on three different human donor samples, and each biological condition was tested in triplicate. Graphed data represent means from each donor.
as §1, with “Human moDC Production. Human” for “Human”, “(Miltenyi) according to the” for “(Miltenyi). Isolations were completed following”, “To differentiate” for “For studies with”, “pyruvate, and” for “pyruvate,”, “beta-mercaptoethanol” for “beta-mercaptoethanol, 10 mM HEPES, and Gibco MEM non-essential amino acids”
Hyperactivating Lipid Formulation—Compound 10. Lipid stocks were formulated at 200 μg/mL lipid in 5% Kolliphor P407 (KP407) in PBS.

A further data set relates to human moDCs. Nature of the data set: IL-6 secretion by human moDCs. In kind it is cell-based. As to conditions: human moDCs, 41.25 μM lipid with R848, compared with R848 + vehicle; FIG. 16.
Another data set concerns murine FLT3L-DCs. As to the kind of experiment: Murine bone marrow-derived FLT3L-DCs hyperactivation. In kind it is cell-based, mice. As to conditions: FLT3L DCs; for IL-1β secretion: 1 μg/mL R848 2-3 hours alone or then 41 uM lipid, 48 hours, FIG. 4A; for viability: R848 then 41 uM lipid, FIG. 4B. The procedure: Murine bone marrow-derived FLT3L-DCs generation. Leg femur and tibia were removed from mice, cut with scissors, and flushed into sterile tubes. Bone marrow suspension was treated with ACK for 1 minute, then passed through a 40 um cell strainer. Cells were counted and resuspended in media consisting of complete IMDM containing 10% FBS, penicillin and streptomycin, and supplements of L-glutamine and sodium pyruvate (I10). […] For each experiment, 5 mice are used to collect BM and to generate DCs.
Lipid preparation. […] Lipid stocks were then further diluted in PBS to treat cells.
Murine bone marrow-derived FLT3L-DCs hyperactivation. BMDCs were harvested on day 8 post differentiation, washed with PBS, and re-plated in FLT3L-containing I10 at a concentration of 1×10^5 cells/mL. Cells were primed with or without 1 μg/mL R848 (final) then treated with or without a hyperactivating lipid (or vehicle control). Forty-eight hours post stimulation, supernatants were collected for cytokine measurement. Viability was measured using the CellTiter-Glo assay (Promega) which measures ATP content from cells. Fifty microliters of CellTiter-Glo reagent were added to 50 μL of cells. Luminescence was quantified on a SpectraMax m5e plate reader using an integration time of 500 milliseconds. Viability data were set relative to control conditions where cells were treated with R848. IL-1β and TNFα cytokine were measured using sandwich ELISAs (Invitrogen).

[2] abbreviates: 41.25 μM lipid with R848, FIG. 17.
The mark [3] stands for this setting: 41.3 uM lipid with R848, FIG. 11.
Where [4] appears, read: 41.3 uM lipid with R848 and MCC950, FIG. 11.
The mark [5] stands for this setting: 24 hours, lipid in 4% KP407 with R848, FIG. 2B.
[6] abbreviates: 20.6 uM lipid with R848 and 10 uM MCC950, FIG. 14.
Setting [7] is: 20.6 uM lipid with R848 vs vehicle, FIG. 14.

As to `CCCCCCCCCCCCCCCCCCCCCCOC[C@H](COP(=O)(O)O)OC(=O)NC` [Compound 6, (R)-1-(docosyloxy)-3-(phosphonooxy)propan-2-yl methylcarbamate], the “hyperactivation of human dendritic cells” value in data set [1] is “did not”. The IL-1β secretion result in data set [1] (setting [2]) is recorded as “induced minimal IL-1β secretion”. The IL-6 secretion entry with human moDCs is given as “IL-6 was secreted at similar levels”.
For the compound `CCCCCCCCCCCCCCCCCCCCCCOC[C@H](CO)OC(N)=O` [Compound 7, (S)-1-(docosyloxy)-3-hydroxypropan-2-yl carbamate], the “hyperactivation of moDC (IL-1β secretion with maintained viability)” value (from here on “hyperactivation of moDC”) in data set [1] (41.3 uM lipid with R848) is listed as “hyperactivating lipids”. For the same compound, the IL-1β secretion result is recorded as “induced secretion of IL-1β” in data set [1] (setting [3]), “significantly reduced” in data set [1] (setting [4]), “produced significantly more IL-1β” in data set [1] (setting [5]) and “induced the lowest levels of IL-1β secretion” in the data set on murine FLT3L-DCs. In addition, the “IL-1β secretion, dependence on the NLRP3 inflammasome” value (shortened to “IL-1β secretion, dependence”) in data set [1] is listed as “depend on the NLRP3 inflammasome for IL-1β secretion”. Further, the viability result with murine FLT3L-DCs is “viability was not compromised”.
On to `CCCCCCCCCCCCCCCCCCCCCCOC[C@H](CO)OC(=O)NC` [Compound 8, (S)-1-(docosyloxy)-3-hydroxypropan-2-yl methylcarbamate], for which, in data set [1] (41.3 uM lipid with R848), the “hyperactivation of moDC” value is “hyperactivating lipids”. The IL-1β secretion entry is listed as “induced secretion of IL-1β” in data set [1] (setting [3]), “significantly reduced” in data set [1] (setting [4]), “produced significantly more IL-1β” in data set [1] (setting [5]) and “induced the lowest levels of IL-1β secretion” in the data set with murine FLT3L-DCs. Moreover, in data set [1], the “IL-1β secretion, dependence” value is reported as “depend on the NLRP3 inflammasome for IL-1β secretion”. Moreover, the viability entry in the data set on murine FLT3L-DCs is “viability was not compromised”.
Regarding `CCCCCCCCCCCCCCCCCCCCCCOC[C@@H](O)CO` [Compound 9, (S)-3-(docosyloxy)propane-1,2-diol], the IL-1β secretion result in data set [1] (41.25 μM lipid with R848 vs vehicle control, FIG. 8) is given as “produced significantly more IL-1β”; in data set [1] (setting [3]), “robustly induced IL-113 secretion”; in data set [1] (setting [5]), “produced significantly more IL-1β”. The “IL-1β secretion, dependence” value in data set [1] was “depend on the NLRP3 inflammasome for IL-1β secretion”.
On to `CCCCCCCCCCCCCCCCCCOC[C@H](CO)OC(=O)NC` [Compound 11, (S)-1-hydroxy-3-(octadecyloxy)propan-2-yl methylcarbamate], for which the “hyperactivation of moDC” value in data set [1] (20.6 uM lipid with R848) is recorded as “hyperactivating lipids”. The “hyperactivation of human dendritic cells” value in data set [1] is “hyperactivating lipids; also recorded: hyperactivated dendritic cells”. For the same compound, the values for the IL-1β secretion result in data set [1] (setting [6]), in data set [1] (setting [7]) and in data set [1] (setting [2]) were “inhibited”, “significantly more IL-1β was detected” and “significantly increased IL-1β secretion”, respectively.
On to `CCCCCCCCCCCCCCCCCCOC[C@@H](O)CO` [Compound 12, (S)-3-(octadecyloxy)propane-1,2-diol], for which the “hyperactivation of moDC” value in data set [1] (20.6 uM lipid with R848) is “hyperactivating lipids”. Moreover, the “hyperactivation of human dendritic cells” value in data set [1] is given as “hyperactivating lipids; also recorded: hyperactivated dendritic cells”. Besides, the IL-1β secretion entry in data set [1] (setting [6]) is given as “inhibited”; in data set [1] (setting [7]), “significantly more IL-1β was detected”; in data set [1] (setting [2]), “significantly increased IL-1β secretion”.
For `CCCCCCCCCCCCCCCCCCOC[C@H](COP(=O)(O)O)OC(=O)NC` [Compound 13, (R)-1-(octadecyloxy)-3-(phosphonooxy)propan-2-yl methylcarbamate], the “hyperactivation of human dendritic cells” value in data set [1] is “hyperactivating lipids; also recorded: hyperactivated dendritic cells”. For the same compound, in data set [1] (setting [2]), the IL-1β secretion result is “significantly increased IL-1β secretion”.
As to `CCCCCCCCCCCCCCCCCCCCCCOC[C@H](CO)OC(=O)N(C)C` [Compound 14, (S)-1-(docosyloxy)-3-hydroxypropan-2-yl dimethylcarbamate], the “hyperactivation of human dendritic cells” value in data set [1] is given as “did not”. Also, the IL-1β secretion result in data set [1] (setting [2]) is “induced minimal IL-1β secretion”.
As for “(R)-2-((dimethylcarbamoyl)oxy)-3-ethoxypropyl (2-(trimethylammonio)ethyl) phosphate-icosane (1/1) [Compound 16]”, in data set [1], the “hyperactivation of human dendritic cells” value was “hyperactivating lipids; also recorded: hyperactivated dendritic cells”. For the same compound, the IL-1β secretion entry in data set [1] (setting [2]) is “significantly increased IL-1β secretion”.
“(R)-3-(docosyloxy)-2-((methylcarbamoyl)oxy) propyl (2-(trimethylammonio) ethyl) phosphate [Compound 4]”: the “hyperactivation of human dendritic cells” value in data set [1] is recorded as “hyperactivating lipids; also recorded: hyperactivated dendritic cells”. Moreover, the IL-1β secretion entry in data set [1] (setting [2]) is “significantly increased IL-1β secretion”.
